From patent US20240216547A1, “USE OF FLUORESCEIN DICARBONATE DERIVATIVES AS A CELL MARKER” (UNIVERSITE JEAN MONNET SAINT ETIENNE, priority 2021, published 2024)

Experiments:
Assay type in all cases: cell-based
[1] = Cytotoxicity by LDH release (CyQUANT LDH Cytotoxicity Assay); conditions: human, HCE-2, 4 μM, 45 min contact, read-out: cytotoxicity (% of dead cells, LDH)
Protocol: The cytotoxicity of a solution of compound 1 in Cremophor® EL [CAS 61791-12-6](molar ratio 1/1), designated under the reference F4267, compared to that of calcein-AM, was evaluated on the human corneal epithelium cell line immortalized by SV40, HCE-2 (ATCC CRL-11135) using two solutions of F4267 of concentrations [40 μM] and [1000 μM] or calcein-AM (FP-F19820, Interchim) [4 μM] diluted in optiMEM (11058021, Gibco, ThermoFisher) and deposited for 45 minutes on the cells (100 μL per well seeded 24 hours previously at 1.10^5 cells/mL [3788, Corning, surface: 0.32 cm^2]. After 45 minutes of contact with compound 1 or with calcein-AM, the cells were rinsed with their culture medium, then returned to culture in an oven with 5% CO2, at 37° C. Cytotoxicity was measured by dosing lactate dehydrogenases (LDH) released into the supernatant using the CyQUANT LDH Cytotoxicity Assay kit (C20301, ThermoFisher, see cytotoxicity test below) and expressed as % of dead cells using an internal standard. Cytotoxicity was evaluated 45 minutes (before rinsing), 24 h and 48 h after the start of incubation (3 wells per condition, n=1 experiments).
Lactate DeHydrogenases (LDH) are a family of ubiquitous cytosolic enzymes present in almost all cell types. Membrane damage causes a release of LDH into the external environment. There is a direct correlation between cellular cytotoxicity which causes membrane damage and the amount of LDH present in the extracellular environment. […]
The cytotoxicity test was carried out with tetrazolium salt (INT) which is converted into formazan. […] The concentration of formazan being proportional to the amount of LDH present in the medium, this was quantified by an absorbance reading at 555 nm, against a blank measurement at 650 nm to eliminate the parasitic absorbance of the medium. The percentage of dead cells is then calculated from the formula below, with the maximum LDH activity being that of a well from which all cells have been lysed, and the basal LDH activity, that of a non-treated well.

[2] = tested on: normal human fetal lung fibroblasts HEL299; experiment: Quality of cytoplasmic marking on adherent cells; conditions: HEL299, 4 μM, FITC filter, macroscope
Protocol: The quality of cytoplasmic marking by compound 1 on cells was evaluated on the adherent line of normal human fetal lung fibroblasts HEL299 [ATCC CCL-137], because they form a cellular monolayer (a single thickness facilitating the evaluation of cellular morphology and enumeration). Cells were seeded at 1.10^5 cells/mL 72 h before marking, then marked with the solution of compound 1 designated by the reference F4267 at [4 μM] and [40 μM] or with a solution of Calcein-AM [4 μM], then observed in a sterile Petri dish under the FITC filter of a macroscope (macro-zoom microscope, MVX10, Olympus, Tokyo, Japan) (2 wells per condition, n=1 experiments).

corneal endothelium = experiment: Quality of cytoplasmic marking on corneal endothelium; conditions: human corneal endothelium, 4 μM, 45 min
Protocol: The quality of cytoplasmic marking by compound 1 (solution F4267) on corneal endothelium was compared to that of Calcein-AM by staining paired corneas. The endothelial surface of the corneas was incubated for 45 minutes either with the F4267 solution (40 μM on the left eye, LE) or with Calcein-AM (4 μM on the right eye, RE) following a validated staining protocol. (Invest Ophthalmol Vis Sci. 2011, 52 (8), 6018-6025, Pipparelli and al.) (n=2 pairs of corneas).

[3] = tested on: HCEC-B4G12 corneal endothelial cells; experiment: Impact of repeated cell marking on cell viability; conditions: B4G12, 4 μM, daily marking 45 min, with or without PBS rinsing, D5
Protocol: The experiment is carried out with HCEC-B4G12 corneal endothelial cells (CVCL_2065). The cells are thawed and cultured in their culture medium. The cells are trypsinized once a week before being seeded in wells of 24-well slides at a concentration of 1.10^5 cells/mL. The cells are then incubated for 5 days at 37° C., 5% CO2 until 90% confluence.
The different wells are stained daily with Calcein-AM (4 μM) or product F4267 (40 μM), according to the following conditions: marking for 45 minutes, then rinsing with PBS or marking for 45 minutes without rinsing. The marking and possibly rinsing step is repeated every day for 4 successive days, then after 2 days without marking, the marking is repeated again for 2 consecutive days.
The marking steps are carried out in duplicate. Afterwards, each marking, a well for each of the conditions is observed by epifluorescence microscopy (Olympus IX81 Microscope, FITC channel, ×4 objective, L: 25, Texp: 142.7 ms), while the second well (control) is kept in the darkness in order to evaluate the impact of fluorescence observation at the end of the study. On the last day of the study, the marking is carried out with calecin-AM (4 μM) in the presence of Hoescht ( 1/500) or the product F4267 (40 μM) in the presence of Hoescht ( 1/500), and the wells are imaged in MIA×4 (reconstruction of several fields to obtain a complete image of the well). […]

CC(=O)OCOC(=O)CN(CC(=O)OCOC(C)=O)Cc1c(OC(C)=O)ccc2c1Oc1c(ccc(OC(C)=O)c1CN(CC(=O)OCOC(C)=O)CC(=O)OCOC(C)=O)C21OC(=O)c2ccccc21 [Calcein-AM]
cytotoxicity at 45 min, 4 µM ([1]; measured at 45 min): 0.6 ± 0.5% | cytotoxicity at 24 h, 4 µM ([1]; measured at 24 h): 26.4 ± 14.1% | cytotoxicity at 48 h, 4 µM ([1]; measured at 48 h): 18.8 ± 11.1% | quality of cytoplasmic marking [2]: visualize the cell cytoplasms in a similar way | marking differentiating dead cells from living cells (corneal endothelium): marking differentiating dead cells from living cells | cell layer after repeated marking [3]: less dense | cell layer after repeated marking ([3]; listed as calcein-AM): absence of cell layer
